Results reported in article PMC9088311, “Cyclic Thiosulfonates for Thiol-Mediated Uptake: Cascade Exchangers, Transporters, Inhibitors” (JACS Au, 2022).
Converted amounts (≈) assume the structure as drawn. “And” between values parts separate entries of the source, which are not always exact repeats. Equal values may be shown once. Read-outs that look alike come from different tables or passages of the source.

Legend:
[1] = Dynamic covalent ring opening with thiol 10, 1H NMR kinetics; format: physicochemical
Method: The dynamic covalent opening of CTO 3 with thiols yields product 9 with a disulfide and a sulfinate (Figure 3B). Consistent with short chalcogen bonds found in silico, the opening of CTO 3 was instantaneous on an NMR timescale with most thiols. To decelerate ring opening, bulky thiols were considered in combination with lowered pH to deactivate the nucleophile. With N-Ac-D-penicillamine 10, the opening of 5 mM CTO 3 in phosphate buffer/DMSO-d6 9:1 was still immediate at pD 6.7 but became detectable in ^1H NMR spectroscopy kinetics under more acidic conditions. The ring-opening rate constants k^O were estimated by fitting the initial velocities to second-order kinetics. Only lower bound rates were approximated from the earliest determined substrate conversions when reactions were still too fast despite the unfavorable conditions. At pD 5.4, dynamic covalent ring opening of CTO 3 with equimolar tertiary thiol 10 occurred with k^O > 0.49 M^–1 s^–1 and equilibrated at K = 6.0 × 10^3 M^–1 (Table 1, entry 1, Figures S4 and S5). At pD 2.7, further deceleration to k^O = 0.10 M^–1 s^–1 shifted the equilibrium to K = 500 M^–1 (Table 1, entry 2, Figures S6 and S7). […] At equilibrium, the concentration of thiol 10 further decreased slowly due to oxidation into the homodimer (Figure 3C, diamonds).
Equilibrium constants for reactions with two reactants A and B and a product C are […]
3.1.1. Dynamic Covalent Ring Opening with Thiols
General procedure A (at 5 mM): To a solution of deuterated sodium phosphate (200 mM in D 2O, pD 2.7 or 5.4, 180 mM final concentration), a stock solution of substrate (0.10 M in DMSO-d6, 5.0 mM final concentration) was added and stirred. Then a stock solution of 10 (0.10 M in DMSO- d6, 5.0 mM final concentration) was added and vigorously stirred at room temperature. The solution was transferred immediately to an NMR tube and NMR data were recorded repeatedly. The concentration of the substrate or thiol at each time plot was calculated by comparing the integrals of the peaks indicated with arrows in the figures, and plotted. The data points were fitted to obtain k1 with the Equation (S6) or (S7) using Graphpad Prism.
General procedure B (at 2 mM): To a solution of deuterated sodium phosphate (200 mM in D 2O, pD 2.7 or 5.4, 180 mM final concentration), DMSO- d6 (10% DMSO- d6 in the reaction mixture) and a stock solution of substrate (0.10 M in DMSO- d6, 2.0 mM final concentration) were added and stirred. Then a stock solution of 10 (0.10 M in DMSO- d6, 2.0 mM final concentration) was added and vigorously stirred at room temperature. The solution was transferred immediately to an NMR tube and NMR data were recorded repeatedly. The concentration of the substrate or thiol at each time plot was calculated by comparing the integrals of the peaks indicated with arrows in the figures, and plotted. The data points were fitted to obtain k1 with the Equation (S6) or (S7) using Graphpad Prism.
General procedure C (for thiosulfinates): To a solution of deuterated sodium phosphate (200 mM in D 2O, pD 5.4, 170 mM final concentration), a stock solution of substrate (0.10 M in DMSO- d6, 5.0 mM final concentration) was added and stirred. Then a stock solution of 10 (0.10 M in DMSO- d6, 10 mM final concentration) was added and vigorously stirred at room […]
data points were fitted to obtain k1 with the Equation (S14) or (S16) using Graphpad Prism. […]
3.1.2. Dependence of Ring Opening on Proticity
A mixture of deuterated phosphoric acid and NaOD (30% in D 2O), which gave pD 2.7 in D2O, was used as buffer in all solvent mixtures. To a solution of deuterated sodium phosphate (20 mM final concentration) in a mixture of D 2O and DMSO- d6 (540 μL, final D 2O content: […]
concentration) was added and stirred. Then a stock solution of 10 (0.10 M in DMSO- d6, 5.0 mM final concentration) was added and vigorously stirred at room temperature. The solution was transferred immediately to an NMR tube and 1H NMR data were recorded repeatedly. […]

[2] = tested on: HeLa Kyoto cells; test: Relative viability (HOE/PI) in HCHT screening
In short: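 HK cells exposed to increasing inhibitor concentrations, then fluorescent transporters at constant concentration, either after inhibitor removal (pre-incubation) or without removal (co-incubation).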

[3] = in vitro; conditions: human
[4] = tested on: trypsin; test: Trypsin inhibition (preliminary, not shown); format: biochemical; conditions: 50 μM; preliminary results
[5] = biological target: cathepsin L (Homo sapiens, UniProt P07711); test: Cathepsin L inhibition (preliminary, not shown); format: biochemical; conditions: 50 μM; preliminary results
[6] = biological target: cathepsin B (Homo sapiens, UniProt P07858); test: Cathepsin B inhibition (preliminary, not shown); format: biochemical; conditions: 50 μM; preliminary results
[7] = tested on: HK cells, transporter 31; conditions: transporter 31 10 μM, pre-incubation (P), cited from earlier work; for IC50: read-out: IC50 (concentration needed to reach 50% inhibition)
[8] = tested on: HK cells, transporter 32; parameters: method as in PMID 34173696; conditions: transporter 32 0.5 or 1 μM, pre-incubation (P), cited from earlier work
[9] = tested on: HeLa Kyoto cells; conditions: with transporter 31; pre-incubation (P); cited from earlier work
[10] = equimolar 10, rt, pD 2.7, 90% D2O, Na+ phosphate 180 mM, substrate 2 mM
[11] = with transporter 28, co-incubation (C)
[12] = with transporter 31, co-incubation (C)
[13] = with transporter 28, pre-incubation (P)

Sequence of cathepsin L (P07711 114-333, species assumed): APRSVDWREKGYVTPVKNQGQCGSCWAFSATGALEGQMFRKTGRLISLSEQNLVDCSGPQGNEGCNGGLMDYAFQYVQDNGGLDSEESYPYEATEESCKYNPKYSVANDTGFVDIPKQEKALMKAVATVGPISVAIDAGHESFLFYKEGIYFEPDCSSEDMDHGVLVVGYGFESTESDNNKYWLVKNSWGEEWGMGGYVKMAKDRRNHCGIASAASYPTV

SMILES	k^O, rate constant of ring opening (or equivalent for acyclic controls) [1, 10]	krel^O, rate constant of ring opening relative to 3 ([1]; pD 2.7, 90% D2O, 2 mM)	RV50 (concentration needed to lower relative viability by 50%) [2, 11]	RV50 (concentration needed to lower relative viability by 50%) [2, 12]	viability at 7 h, 50 µM [3]	RV50 (concentration needed to lower relative viability by 50%) [2, 13]	inhibition of trypsin (in words) [4]	inhibition of cathepsin L (in words) [5]	inhibition of cathepsin B (in words) [6]	IC50 [7]	MIC (concentration needed to reach 15% inhibition) [7]	RV50 (concentration needed to lower relative viability by 50%) [9]	other results
O=C1O[C@H]2CSS(=O)(=O)C[C@H]2O1 [Compound 11]	>12 M^–1 s^–1	>120	> 50 µM	>50 µM	84%								ring opening faster than 3 (fold) ([1]; with thiol 10, pD 2.7): > 100 ×; RV50 (concentration needed to lower relative viability by 50%) ([2]; with transporter 31, pre-incubation (P)): >20 µM
O=S1(=O)C[C@H](O)[C@H](O)CS1 (stereo in doubt) [Compound 3, (4S,5R)-4,5-dihydroxy-1,2-dithiane-1,1-dioxide]				>1000 µM	81%	>1000 µM	inhibits	not L	inhibits	> 1000 µM	200 µM (≈ 36.8 µg/mL)	1300 µM	k^O, rate constant of ring opening ([1]; equimolar 10, rt, pD 2.7, 90% D2O/DMSO-d6, Na+ phosphate 180 mM, substrate 5 mM): 0.10 M^–1 s^–1 and 0.10 ^i M^–1 s^–1; k^O, rate constant of ring opening (or equivalent for acyclic controls) ([1]; equimolar 10, rt, pD 5.4, 90% D2O/DMSO-d6, Na+ phosphate 180 mM, substrate 5 mM): >0.49 M^–1 s^–1; k^O, rate constant of ring opening ([1]; estimated pD 2.7, Na+ phosphate 20 mM, 2% D2O, 5 mM): >1.4 M^–1 s^–1; k^O, rate constant of ring opening ([1]; estimated pD 2.7, Na+ phosphate 20 mM, 5% D2O, 5 mM): >1.3 M^–1 s^–1; k^O, rate constant of ring opening ([1]; estimated pD 2.7, Na+ phosphate 20 mM, 8% D2O, 5 mM): >1.4 M^–1 s^–1; k^O, rate constant of ring opening ([1]; estimated pD 2.7, Na+ phosphate 20 mM, 10% D2O, 5 mM): >2.1 M^–1 s^–1; k^O, rate constant of ring opening ([1]; estimated pD 2.7, Na+ phosphate 20 mM, 30% D2O, 5 mM): >2.8 M^–1 s^–1; k^O, rate constant of ring opening ([1]; estimated pD 2.7, Na+ phosphate 20 mM, 50% D2O, 5 mM): >1.3 M^–1 s^–1; k^O, rate constant of ring opening ([1]; estimated pD 2.7, Na+ phosphate 20 mM, 70% D2O, 5 mM): 0.28 ± 0.03 M^–1 s^–1 and 0.28 M^–1 s^–1; k^O, rate constant of ring opening ([1]; estimated pD 2.7, Na+ phosphate 20 mM, 90% D2O, 5 mM): 0.15 ± 0.01 M^–1 s^–1 and 0.15 M^–1 s^–1; krel^O, rate constant of ring opening relative to 3 ([1]; pD 2.7, 90% D2O, 5 mM): 1; krel^O, rate constant of ring opening relative to 3 ([1]; pD 5.4, 90% D2O, 5 mM): 1; IC50 ([8]; read-out: IC50 (concentration needed to reach 50% inhibition)): 550 µM; MIC (concentration needed to reach 15% inhibition) [8]: 250 µM (≈ 46.1 µg/mL)
O=S1(=O)C=C[C@@H](O)CS1 [Compound 12]	>6.1 M^–1 s^–1	>61	100 µM	>50 µM			inhibit only cathepsin B	inhibit only cathepsin B	inhibit only cathepsin B				
[O-][S+]1C[C@@H](O)[C@@H](O)CS1 (some centres unmarked) [Compound 2]						>100 µM				> 5000 µM	800 µM (≈ 135 µg/mL)	4400 µM	k^O, rate constant of ring opening (or equivalent for acyclic controls) ([1]; 2 equiv of 10, rt, pD 5.4, 85% D2O, Na+ phosphate 170 mM, substrate 5 mM): 0.001 M^–1 s^–1; krel^O, rate constant of ring opening relative to 3 ([1]; pD 5.4, 85% D2O, 5 mM, 2 equiv of 10): <0.002; ring opening/exchange slower than CTO 3 (fold) ([1]; with thiol 10, pD 5.4): > 500 ×
